According to the NIST ThermoML archive (doi:10.1016/j.fluid.2015.07.030):

Assay: refractive index (other wavelength) (dimensionless); xn = mol fraction of the nth substance listed
Settings: 95.99 kPa, Liquid, Standard Abbe refractometry

OCCOCCOCCO [triethylene glycol] + O
refractive index
Settings | Wavelength=404.7 nm | Wavelength=435.8 nm | Wavelength=486.1 nm | Wavelength=546.1 nm | Wavelength=587.6 nm | Wavelength=589.3 nm | Wavelength=632.8 nm | Wavelength=644 nm | Wavelength=706.5 nm
308.15 K, x2 = 0 | – | – | – | – | – | – | – | 1.44909 | 1.44737
308.15 K, x2 = 0.1056 | – | – | – | – | – | – | – | 1.44778 | 1.44608
308.15 K, x2 = 0.2069 | – | – | – | – | – | – | – | 1.44621 | 1.4451
308.15 K, x2 = 0.3104 | – | – | – | – | – | – | – | 1.44392 | 1.44202
308.15 K, x2 = 0.4844 | – | – | – | – | – | – | – | 1.43913 | 1.43745
308.15 K, x2 = 0.5016 | – | – | – | – | – | – | – | 1.43819 | 1.43653
308.15 K, x2 = 0.5952 | – | – | – | – | – | – | – | 1.43167 | 1.42998
308.15 K, x2 = 0.6016 | – | – | – | – | – | – | – | 1.43191 | 1.43023
308.15 K, x2 = 0.6788 | – | – | – | – | – | – | – | 1.42543 | 1.42374
308.15 K, x2 = 0.7835 | – | – | – | – | – | – | – | 1.41701 | 1.41536
308.15 K, x2 = 0.8184 | – | – | – | – | – | – | – | 1.41118 | 1.40951
308.15 K, x2 = 0.8473 | – | – | – | – | – | – | – | 1.4049 | 1.40326
308.15 K, x2 = 0.8719 | – | – | – | – | – | – | – | 1.39819 | 1.39653
308.15 K, x2 = 0.8926 | – | – | – | – | – | – | – | 1.39069 | 1.38904
308.15 K, x2 = 0.9106 | – | – | – | – | – | – | – | 1.38534 | 1.38371
308.15 K, x2 = 0.9254 | – | – | – | – | – | – | – | 1.37569 | 1.37409
308.15 K, x2 = 0.9303 | – | – | – | – | – | – | – | 1.37659 | 1.37498
308.15 K, x2 = 0.9391 | – | – | – | – | – | – | 1.37329 | 1.37297 | 1.37137
308.15 K, x2 = 0.951 | – | – | – | – | – | – | 1.36686 | 1.36654 | 1.36496
308.15 K, x2 = 0.9599 | – | – | – | – | – | – | 1.36065 | 1.36033 | 1.35875
308.15 K, x2 = 0.9708 | – | – | – | – | – | – | 1.35307 | 1.35275 | 1.35119
308.15 K, x2 = 0.979 | – | – | – | – | – | – | 1.34835 | 1.34803 | 1.34647
308.15 K, x2 = 0.9867 | – | – | – | – | – | – | 1.34205 | 1.34175 | 1.34023
308.15 K, x2 = 0.9936 | – | – | – | – | – | – | 1.33605 | 1.33576 | 1.33425
313.15 K, x2 = 0 | 1.46216 | 1.45863 | 1.45448 | 1.45106 | 1.44927 | 1.4492 | 1.44766 | 1.44731 | 1.44561
313.15 K, x2 = 0.1056 | 1.46096 | 1.45744 | 1.4533 | 1.4499 | 1.44812 | 1.44806 | 1.44652 | 1.44616 | 1.44445
313.15 K, x2 = 0.2069 | 1.45931 | 1.45583 | 1.45169 | 1.44831 | 1.44653 | 1.44647 | 1.44494 | 1.44459 | 1.44288
313.15 K, x2 = 0.3104 | 1.45682 | 1.45335 | 1.44921 | 1.44581 | 1.44397 | 1.44244 | 1.44209 | 1.44136 | 1.4404
313.15 K, x2 = 0.4844 | 1.45391 | 1.45049 | 1.44639 | 1.44305 | 1.44124 | 1.44046 | 1.43954 | 1.43899 | 1.43766
313.15 K, x2 = 0.5016 | 1.45102 | 1.44762 | 1.44358 | 1.44028 | 1.43853 | 1.43847 | 1.43695 | 1.43661 | 1.43492
313.15 K, x2 = 0.5952 | 1.44431 | 1.44094 | 1.43703 | 1.43376 | 1.43204 | 1.43197 | 1.43049 | 1.43015 | 1.42848
313.15 K, x2 = 0.6016 | 1.44384 | 1.44387 | 1.43615 | 1.43304 | 1.43132 | 1.43126 | 1.43021 | 1.42952 | 1.42809
313.15 K, x2 = 0.6788 | 1.43802 | 1.43469 | 1.43086 | 1.42768 | 1.42601 | 1.42559 | 1.42446 | 1.42411 | 1.42243
313.15 K, x2 = 0.7835 | 1.42903 | 1.42572 | 1.42205 | 1.41893 | 1.41728 | 1.41722 | 1.41578 | 1.41543 | 1.41372
313.15 K, x2 = 0.8184 | 1.42287 | 1.41965 | 1.41597 | 1.41287 | 1.41125 | 1.41119 | 1.40976 | 1.40942 | 1.40776
313.15 K, x2 = 0.8473 | 1.4172 | 1.41405 | 1.41039 | 1.40736 | 1.40575 | 1.40569 | 1.40427 | 1.40394 | 1.40231
313.15 K, x2 = 0.8719 | 1.41026 | 1.40715 | 1.40359 | 1.40061 | 1.39902 | 1.39896 | 1.39756 | 1.39723 | 1.39559
313.15 K, x2 = 0.8926 | 1.40276 | 1.39972 | 1.39624 | 1.39332 | 1.39177 | 1.39171 | 1.39035 | 1.39002 | 1.3884
313.15 K, x2 = 0.9106 | 1.39726 | – | 1.39088 | 1.38799 | 1.38648 | 1.38642 | 1.38508 | 1.38475 | 1.38313
313.15 K, x2 = 0.9254 | 1.38778 | 1.38484 | 1.38148 | 1.37865 | 1.37712 | 1.37706 | 1.37569 | 1.37537 | 1.37376
313.15 K, x2 = 0.9303 | 1.38834 | 1.38538 | 1.38203 | 1.3792 | 1.37769 | 1.37763 | 1.37629 | 1.37596 | 1.37435
313.15 K, x2 = 0.9391 | 1.38513 | 1.38218 | 1.37884 | 1.37598 | 1.37445 | 1.3744 | 1.37305 | 1.37272 | 1.37112
313.15 K, x2 = 0.951 | 1.37841 | 1.37555 | 1.37228 | 1.36949 | 1.36803 | 1.36794 | 1.36662 | 1.3663 | 1.36471
313.15 K, x2 = 0.9599 | 1.37093 | 1.36813 | 1.36494 | 1.36219 | 1.36072 | 1.36066 | 1.35936 | 1.35904 | 1.35747
313.15 K, x2 = 0.9708 | 1.36388 | 1.36116 | 1.35801 | 1.35533 | 1.35388 | 1.35383 | 1.35253 | 1.35221 | 1.35066
313.15 K, x2 = 0.979 | 1.35918 | 1.3565 | 1.35339 | 1.35071 | 1.34929 | 1.34923 | 1.34796 | 1.34764 | 1.3461
313.15 K, x2 = 0.9867 | 1.35221 | 1.34957 | 1.34651 | 1.34386 | 1.34243 | 1.34238 | 1.34111 | 1.34081 | 1.33932
313.15 K, x2 = 0.9936 | 1.34633 | 1.34376 | 1.34073 | 1.33811 | 1.3367 | 1.33665 | 1.3354 | 1.3351 | 1.33361
